Data reported in US20110070232A1, “Combination Therapy with an Antitumor Alkaloid” (Pharma Mar, S.A., priority 2008, published 2011).
Like-named read-outs stand apart in the source and are kept apart here.

Tests used:
Assay type in all cases: in vivo, mice
MRI-H-254 tumors = test system: MRI-H-254 tumors
Experimental: Female athymic nude mice (Harlan Sprague Dawley, Madison, Wis.) were utilized for all experiments. Animals were housed in ventilated rack caging with food and water ad libitum. The mice were acclimated for at least 5 days prior to tumor implantation with tumor fragments.
Treatments were initiated on DPI 16.
(§1) Tumor size measurements were recorded twice weekly from the treatment initiation until the termination of the study.
(§2) Mean, standard deviation and standard error of the mean were determined for tumor volume for all animal groups at all assessments. Student's t test was performed on tumor volumes at each measurement day, including at the end of the study, to determine whether there were any statistically significant differences between combination treatment groups and single monotherapy treatment groups.

NCI-H460 tumors = conditions: alone or with PM00104 0.9 mg/kg/day IV
Experimental: Female athymic nude mice (Harlan Sprague Dawley, Madison, Wis.) were utilized for all experiments. Animals were housed in ventilated rack caging with food and water ad libitum. The mice were acclimated for at least 5 days prior to tumor implantation.
The tumor model used in this study was NCI-H460 cell line which is a human NSCLC cell line obtained from the ATCC (Manassas, Va.). […] Cells from in vitro passage 7 were implanted SC into study mice using a 1 ml syringe with a 13G trocar: 5×10^6 cells/mouse in 0.2 ml 50% Matrigel/50% RPMI medium of NCI-H460 without serum or antibiotics. Bacterial culture was taken on cells used to implant the study.
Treatments were initiated on DPI 9.
Tumor size measurements were recorded 2-3 times/week from the treatment initiation until the termination of the study.
as §2

HepG2 tumors = test system: HepG2 tumors
Experimental: (§3) Female athymic nude mice (Harlan Sprague Dawley, Madison, Wis.) were utilized for all experiments. Animals were housed in ventilated rack caging with food and water ad libitum. The mice were acclimated for at least 5 days prior to tumor implantation with a tumor cell suspension.
The tumor model used in these studies was HepG2 cell line, which was obtained from the ATCC (Manassas, Va.).
HepG2 cells were grown in MEM supplemented with 10% FBS, 1.5 g/L sodium bicarbonate, 0.1 mM non-essential amino acids, 1.0 mM sodium pyruvate, and 2 mM L-glutamine. Each animal was implanted SC on the right flank, using a 13G trochar, with 5×10^6 HepG2 cells in a 0.2 mL suspension of 50% Matrigel and 50% serum free medium, without antibiotics. Bacterial cultures were performed on aliquots of the cells prepared for implantation.
Treatments were initiated on DPI 19.
as §1, §2

PLC/PRF/5 tumors = test system: PLC/PRF/5 tumors
Experimental: as §3
The tumor model used in these studies was PLC/PRF/5 cell line, which was obtained from the ATCC (Manassas, Va.).
PLC/PRF/5 were grown in Eagle's minimum essential medium supplemented with 10% FBS and 1% L-glutamine. Each animal was implanted SC on the right flank, using a 13G trochar and 1 mL syringe, with 5×10^6 PLC/PRF/5 cells in a 0.2 mL suspension of 50% Matrigel and 50% serum free MEM medium, without antibiotics. Bacterial cultures were performed on aliquots of the cells prepared for implantation.
Treatments were initiated on DPI 14.
as §1, §2

[1] = day 20, PM00104 0.90, cisplatin 3, irinotecan 10, paclitaxel 12.5 mg/kg/day
[2] = day 20, PM00104 0.90, cisplatin 5, irinotecan 18, paclitaxel 25 mg/kg/day
[3] = day 23, PM00104 0.90, cisplatin 3, irinotecan 10, paclitaxel 12.5 mg/kg/day
[4] = day 26, PM00104 0.90, cisplatin 3, irinotecan 10, paclitaxel 12.5 mg/kg/day
[5] = day 29, PM00104 0.90, cisplatin 3, irinotecan 10, paclitaxel 12.5 mg/kg/day
[6] = day 40, PM00104 0.90, cisplatin 3, irinotecan 10, paclitaxel 12.5 mg/kg/day
[7] = day 40, PM00104 0.90, cisplatin 5, irinotecan 18, paclitaxel 25 mg/kg/day
[8] = day 48, PM00104 0.90, cisplatin 3, irinotecan 10, paclitaxel 12.5 mg/kg/day
[9] = day 48, PM00104 0.90, cisplatin 5, irinotecan 18, paclitaxel 25 mg/kg/day
[10] = day 19, PM00104 0.90, sorafenib 30 mg/kg/day
[11] = day 22, PM00104 0.90, sorafenib 30 mg/kg/day
[12] = day 22, PM00104 0.90, sorafenib 60 mg/kg/day
[13] = day 26, PM00104 0.90, sorafenib 60 mg/kg/day
[14] = day 30, PM00104 0.90, sorafenib 30 mg/kg/day
[15] = day 30, PM00104 0.90, sorafenib 60 mg/kg/day
[16] = day 33, PM00104 0.90, sorafenib 60 mg/kg/day
[17] = day 14, PM00104 0.90, sorafenib 60 mg/kg/day
[18] = day 25, PM00104 0.90, sorafenib 60 mg/kg/day
[19] = day 28, PM00104 0.90, sorafenib 60 mg/kg/day
[20] = day 32, PM00104 0.90, sorafenib 60 mg/kg/day
[21] = day 39, PM00104 0.90, sorafenib 60 mg/kg/day
[22] = day 42, PM00104 0.90, sorafenib 60 mg/kg/day

Structure (SMILES): CCc1c2c(nc3ccc(OC(=O)N4CCC(N5CCCCC5)CC4)cc13)-c1cc3c(c(=O)n1C2)COC(=O)[C@]3(O)CC [irinotecan]
- % Inhibition (MRI-H-254 tumors; day 16, PM00104 0.90, cisplatin 3, irinotecan 10, paclitaxel 12.5 mg/kg/day): 1.6%
- % Inhibition (MRI-H-254 tumors; day 16, PM00104 0.90, cisplatin 5, irinotecan 18, paclitaxel 25 mg/kg/day): 1.9%
- % Inhibition (MRI-H-254 tumors; [1]): 7.5%
- % T/C (MRI-H-254 tumors; [1]): 92.5%
- % Inhibition (MRI-H-254 tumors; [2]): 7.9%
- % T/C (MRI-H-254 tumors; [2]): 92.1%
- % Inhibition (MRI-H-254 tumors; [3]): 7.0%
- % T/C (MRI-H-254 tumors; [3]): 93.0%
- % Inhibition (MRI-H-254 tumors; day 23, PM00104 0.90, cisplatin 5, irinotecan 18, paclitaxel 25 mg/kg/day): 16.0%
- % Inhibition (MRI-H-254 tumors; [4]): 9.8%
- % T/C (MRI-H-254 tumors; [4]): 90.2%
- % Inhibition (MRI-H-254 tumors; day 26, PM00104 0.90, cisplatin 5, irinotecan 18, paclitaxel 25 mg/kg/day): 25.0%
- % Inhibition (MRI-H-254 tumors; [5]): 11.4%
- % T/C (MRI-H-254 tumors; [5]): 88.6%
- % Inhibition (MRI-H-254 tumors; [6]): 50.8%
- % T/C (MRI-H-254 tumors; [6]): 49.2%
- % Inhibition (MRI-H-254 tumors; [7]): 59.9%
- % T/C (MRI-H-254 tumors; [7]): 40.1%
- % Inhibition (MRI-H-254 tumors; [8]): 58.6%
- % T/C (MRI-H-254 tumors; [8]): 41.4%
- % Inhibition (MRI-H-254 tumors; [9]): 65.1%
- % T/C (MRI-H-254 tumors; [9]): 34.9%

Structure (SMILES): CO[C@H]1C[C@@H]2CC[C@@H](C)[C@@](O)(O2)C(=O)C(=O)N2CCCC[C@H]2C(=O)O[C@H]([C@H](C)C[C@@H]2CC[C@@H](OC(=O)C(C)(CO)CO)[C@H](OC)C2)CC(=O)[C@H](C)/C=C(\C)[C@@H](O)[C@@H](OC)C(=O)[C@H](C)C[C@H](C)/C=C/C=C/C=C/1C [temsirolimus]
- % T/C on day 9 (NCI-H460 tumors; Temsirolimus 10 mg/kg/day IP): 101.9%
- % T/C on day 13 (NCI-H460 tumors; Temsirolimus 10 mg/kg/day IP): 60.4%
- % T/C on day 16 (NCI-H460 tumors; Temsirolimus 10 mg/kg/day IP): 55.5%
- % T/C on day 21 (NCI-H460 tumors; Temsirolimus 10 mg/kg/day IP): 40.5%
- % T/C on day 24 (NCI-H460 tumors; Temsirolimus 10 mg/kg/day IP): 18.9%
- % T/C on day 30 (NCI-H460 tumors; Temsirolimus 10 mg/kg/day IP): 22.0%
- % T/C on day 38 (NCI-H460 tumors; Temsirolimus 10 mg/kg/day IP): 52.0%
- % T/C on day 41 (NCI-H460 tumors; Temsirolimus 10 mg/kg/day IP): 66.4%
- % T/C on day 9 (NCI-H460 tumors; Temsirolimus 20 mg/kg/day IP): 104.4%
- % T/C on day 13 (NCI-H460 tumors; Temsirolimus 20 mg/kg/day IP): 66.4%
- % T/C on day 16 (NCI-H460 tumors; Temsirolimus 20 mg/kg/day IP): 68.4%
- % T/C on day 21 (NCI-H460 tumors; Temsirolimus 20 mg/kg/day IP): 46.8%
- % T/C on day 24 (NCI-H460 tumors; Temsirolimus 20 mg/kg/day IP): 35.9%
- % T/C on day 27 (NCI-H460 tumors; Temsirolimus 20 mg/kg/day IP): 15.9%
- % T/C on day 30 (NCI-H460 tumors; Temsirolimus 20 mg/kg/day IP): 23.9%
- % T/C on day 38 (NCI-H460 tumors; Temsirolimus 20 mg/kg/day IP): 61.2%
- % T/C on day 41 (NCI-H460 tumors; Temsirolimus 20 mg/kg/day IP): 65.2%

Structure (SMILES): CNC(=O)c1cc(Oc2ccc(NC(=O)Nc3ccc(Cl)c(C(F)(F)F)c3)cc2)ccn1 [sorafenib]
- % Inhibition (HepG2 tumors; day 19, PM00104 0.60, sorafenib 30 mg/kg/day): −1.4%
- % Inhibition (HepG2 tumors; day 19, PM00104 0.60, sorafenib 60 mg/kg/day): 11.2%
- % Inhibition (HepG2 tumors; [10]): −1.4%
- % T/C (HepG2 tumors; [10]): 101.4%
- % Inhibition (HepG2 tumors; day 19, PM00104 0.90, sorafenib 60 mg/kg/day): 11.2%
- % Inhibition (HepG2 tumors; day 22, PM00104 0.60, sorafenib 30 mg/kg/day): −23.5%
- % Inhibition (HepG2 tumors; day 22, PM00104 0.60, sorafenib 60 mg/kg/day): 21.3%
- % Inhibition (HepG2 tumors; [11]): −23.5%
- % T/C (HepG2 tumors; [11]): 123.5%
- % Inhibition (HepG2 tumors; [12]): 21.3%
- % T/C (HepG2 tumors; [12]): 78.7%
- % Inhibition (HepG2 tumors; day 26, PM00104 0.60, sorafenib 30 mg/kg/day): 8.7%
- % Inhibition (HepG2 tumors; day 26, PM00104 0.60, sorafenib 60 mg/kg/day): 39.9%
- % Inhibition (HepG2 tumors; day 26, PM00104 0.90, sorafenib 30 mg/kg/day): 8.7%
- % Inhibition (HepG2 tumors; [13]): 39.9%
- % T/C (HepG2 tumors; [13]): 60.1%
- % Inhibition (HepG2 tumors; day 30, PM00104 0.60, sorafenib 30 mg/kg/day): −0.9%
- % Inhibition (HepG2 tumors; day 30, PM00104 0.60, sorafenib 60 mg/kg/day): 38.2%
- % Inhibition (HepG2 tumors; [14]): −0.9%
- % T/C (HepG2 tumors; [14]): 100.9%
- % Inhibition (HepG2 tumors; [15]): 38.2%
- % T/C (HepG2 tumors; [15]): 61.8%
- % Inhibition (HepG2 tumors; day 33, PM00104 0.60, sorafenib 30 mg/kg/day): 9.6%
- % Inhibition (HepG2 tumors; day 33, PM00104 0.60, sorafenib 60 mg/kg/day): 33.8%
- % Inhibition (HepG2 tumors; day 33, PM00104 0.90, sorafenib 30 mg/kg/day): 9.6%
- % Inhibition (HepG2 tumors; [16]): 33.8%
- % T/C (HepG2 tumors; [16]): 66.2%
- % T/C (PLC/PRF/5 tumors; day 14, PM00104 0.90, sorafenib 30 mg/kg/day): 99.5%
- % Inhibition (PLC/PRF/5 tumors; [17]): 1.5%
- % T/C (PLC/PRF/5 tumors; [17]): 98.5%
- % Inhibition (PLC/PRF/5 tumors; day 18, PM00104 0.90, sorafenib 60 mg/kg/day): 26.4%
- % T/C (PLC/PRF/5 tumors; [11]): 79.5%
- % Inhibition (PLC/PRF/5 tumors; [12]): 47.8%
- % T/C (PLC/PRF/5 tumors; [12]): 52.2%
- % Inhibition (PLC/PRF/5 tumors; [18]): 46.6%
- % T/C (PLC/PRF/5 tumors; [18]): 53.4%
- % Inhibition (PLC/PRF/5 tumors; [19]): 56.6%
- % T/C (PLC/PRF/5 tumors; [19]): 43.4%
- % Inhibition (PLC/PRF/5 tumors; [20]): 57.1%
- % T/C (PLC/PRF/5 tumors; [20]): 42.9%
- % T/C (PLC/PRF/5 tumors; day 35, PM00104 0.90, sorafenib 30 mg/kg/day): 54.7%
- % T/C (PLC/PRF/5 tumors; day 35, PM00104 0.90, sorafenib 60 mg/kg/day): 36.5%
- % T/C (PLC/PRF/5 tumors; day 39, PM00104 0.90, sorafenib 30 mg/kg/day): 59.3%
- % Inhibition (PLC/PRF/5 tumors; [21]): 49.8%
- % T/C (PLC/PRF/5 tumors; [21]): 50.2%
- % Inhibition (PLC/PRF/5 tumors; [22]): 44.6%
- % T/C (PLC/PRF/5 tumors; [22]): 55.4%
